Read-outs that look alike come from different tables or passages of the source.
Experiments:
Type in all cases: cell-based
SKOV3 cells = assay: MTT cytotoxicity assay, SKOV3; settings: for Letal Dose (μM) LD25: Table VIII, 72 h, MTT, 25% cell death; for Cell viability (%): Table IX
Description: (§1) The cytotoxicity of penetrating peptides or chemotherapeutic agents, alone or in combination, was evaluated by the (3-(4,5-dimethylthiazol-2-yl)-2,5-diphenyltetrazolium bromide) tetrazolium (MTT) reduction assay. The cells were seeded in 96-well plates (100 μL/well) at a cell density defined from growth curves. After 24 hours of incubation, cells were treated with the peptides for 72 hours. The wells were rinsed two times with RPMI. After washing, 10 μl of stock MTT solution (5 mg/ml; MTT (SIGMA #M-2128) in PBS Dubecco's 1× without Ca^2+ and Mg^2+) was added to a final volume of 100 μl of culture medium. Cell lines were incubated for additional 4 hours at 37° C. under humid atmosphere with 5% (v/v) CO2. The formation of blue formazan crystals was detected under a microscope. An equal volume of 10% SDS (MERCK, #926.238) in 10 mM HCl was added to each well and the plate was placed in the incubator overnight to dissolve formazan crystals. The plates were mixed to ensure complete solubilisation of formazan crystals and absorbance was measured at 570 nm and 620 nm. The percentage of viable cells was estimated using the formula: % cell viability=ΔOD(570-620) treated/ΔOD(570-620)control×100.
(§2) ES2, IGROV-1, OVCAR8 and SKOV3 cell lines come from human ovarian cancer.
(§3) Cell-penetrating peptides (CPPs) comprising the binding site of TEAD to TAZ or YAP or of YAP to TEAD (TAZ, TEAD and YAP peptides, respectively) were chemically synthesized. The effect of the peptides on cell viability was assayed on several human ovarian cancer cell lines. All the ovarian cancer cell lines were treated for 72 h with different peptide concentrations. Cytotoxicity was analysed as described in example 2.

IGROV-1 cells = assay: MTT cytotoxicity assay, IGROV; settings: for Letal Dose (μM) LD25: Table VIII, 72 h, MTT, 25% cell death; for Cell viability (%): Table IX
Description: as §1, §2, §3

OVCAR8 cells = assay: MTT cytotoxicity assay, OVCAR8; settings: for Letal Dose (μM) LD25: Table VIII, 72 h, MTT, 25% cell death; for Cell viability (%): Table IX
Description: as §1, §2, §3

ES2 cells = assay: MTT cytotoxicity assay, ES2; settings: for Letal Dose (μM) LD25: Table VIII, 72 h, MTT, 25% cell death; for Cell viability (%): Table IX
Description: as §1, §2, §3

H1650 cells = settings: for Letal Dose (μM) LD25: Table II, 72 h, MTT, 25% cell death
Description: (§4) H1650, H1975, H1299, A549 cell lines were cultured in DMEM medium supplemented with 10% of FCS. HBEC cell lines (wt and Ras V12) were cultured in KSFM supplemented with growth factors. All the cell lines come from human non small cell lung cancer (NSCLC).
as §1
(§5) Cell-penetrating peptides (CPPs) comprising the binding site of TEAD to TAZ or YAP or of YAP to TEAD (TAZ, TEAD and YAP peptides, respectively) were chemically synthesized. The effect of the peptides on cell viability was assayed on several human non small cell lung cancer (NSCLC) cell lines. All the lung cancer cell lines were treated for 72 h with different peptide concentrations. Cytotoxicity was analysed as described in Materials and Methods.

A549 cells = settings: for Letal Dose (μM) LD25: Table II, 72 h, MTT, 25% cell death
Description: as §4, §1, §5

H1975 cells = settings: for Letal Dose (μM) LD25: Table II, 72 h, MTT, 25% cell death
Description: as §4, §1, §5

H1299 cells = settings: for Letal Dose (μM) LD25: Table II, 72 h, MTT, 25% cell death
Description: as §4, §1, §5

HBEC wt cells = settings: for Letal Dose (μM) LD25: Table II, HBEC WT, 72 h, MTT, 25% cell death; for Cell viability (%): HBEC wt
Description: as §4, §1, §5

HBEC RasV12 cells = settings: for Letal Dose (μM) LD25: Table II, 72 h, MTT, 25% cell death
Description: as §4, §1, §5

[1] = Table III, drug alone vs its vehicle (HPCD10%, NaCl or Glucose 5%)
[2] = Table VI, peptide alone vs HPCD 10%
[3] = Table IV, drug alone vs its vehicle (Glucose 5% or NaCl)
[4] = Table V, drug alone vs its vehicle (Glucose 5% or NaCl)

Row | Compound | Letal Dose (μM) LD25 (SKOV3 cells) | Letal Dose (μM) LD25 (IGROV-1 cells) | Letal Dose (μM) LD25 (OVCAR8 cells) | Letal Dose (μM) LD25 (ES2 cells) | Letal Dose (μM) LD25 (H1650 cells) | Cell viability (%) (H1650 cells; [1]) | Letal Dose (μM) LD25 (A549 cells) | Cell viability (%) (A549 cells; [1]) | Letal Dose (μM) LD25 (H1975 cells) | Cell viability (%) (H1975 cells; [1]) | Letal Dose (μM) LD25 (H1299 cells) | Cell viability (%) (H1299 cells; [1]) | Letal Dose (μM) LD25 (HBEC wt cells) | Cell viability (%) (HBEC wt cells; [1]) | Letal Dose (μM) LD25 (HBEC RasV12 cells) | Cell viability (%) (HBEC RasV12 cells; [1]) | Cell viability (%) (H1650 cells; [3]) | Cell viability (%) (H1650 cells; [4]) | Cell viability (%) (A549 cells; [3]) | Cell viability (%) (A549 cells; [4]) | also measured
1 | CC(=O)O[C@H]1C(=O)[C@@]2(C)[C@H]([C@H](OC(=O)c3ccccc3)[C@]3(O)C[C@H](OC(=O)[C@H](O)[C@@H](NC(=O)c4ccccc4)c4ccccc4)C(C)=C1C3(C)C)[C@]1(OC(C)=O)CO[C@@H]1C[C@@H]2O [Paclitaxel] | 0.005 µM | 0.002 µM | 0.003 µM | 0.004 µM | – | – | – | – | – | – | – | – | – | – | – | – | – | – | – | – | –
2 | VKKKKIKAEIKIPPHAFFVLKFWADLNWGPSGEEAGAG [TAZ] | 60 µM | 5 µM | 9 µM | 6 µM | >100 µM | −30.68% | 6 µM | −38% | 3 µM | −49.35% | 5 µM | −24.71% | 2.5 µM | −58.16% | 2.5 µM | −89.9% | – | – | – | – | Cell viability (%) (H1650 cells; [2]): −2.439%; Cell viability (%) (A549 cells; [2]): −7.835%; Cell viability (%) (H1975 cells; [2]): −13.21%; Cell viability (%) (H1299 cells; [2]): −8.413%; Cell viability (%) (HBEC wt cells; [2]): −66.15%; Cell viability (%) (HBEC RasV12 cells; [2]): −53.02%; Cell viability (%) (SKOV3 cells; TAZ 10 μM vs HPCD 10%): −26.64%; Cell viability (%) (SKOV3 cells; TAZ 25 μM vs HPCD 10%): −36.09%; Cell viability (%) (IGROV-1 cells; TAZ 10 μM vs HPCD 10%): −39.39%; Cell viability (%) (IGROV-1 cells; TAZ 25 μM vs HPCD 10%): −34%; Cell viability (%) (OVCAR8 cells; TAZ 10 μM vs HPCD 10%): −18.7%; Cell viability (%) (OVCAR8 cells; TAZ 25 μM vs HPCD 10%): −24.69%; Cell viability (%) (ES2 cells; TAZ 10 μM vs HPCD 10%): −46.33%; Cell viability (%) (ES2 cells; TAZ 25 μM vs HPCD 10%): −57.44%
3 | N.N.[Cl][Pt][Cl] [Cisplatin] | – | – | – | – | 2 µM | −55.41% | 3 µM | −37.43% | 30 µM | −76.57% | 30 µM | −57.12% | 2 µM | −21.45% | 1 µM | −44.42% | −77.26% | −83.01% | −60.45% | −57.64% | Cell viability (%) (H1975 cells; [3]): −85.91%; Cell viability (%) (H1975 cells; [4]): −97.93%; Cell viability (%) (H1299 cells; [3]): −73.62%; Cell viability (%) (H1299 cells; [4]): −95.42%; Cell viability (%) (HBEC wt cells; [3]): −77.04%; Cell viability (%) (HBEC wt cells; [4]): −77.96%; Cell viability (%) (HBEC RasV12 cells; [3]): −55.51%; Cell viability (%) (HBEC RasV12 cells; [4]): −89.58%
4 | C#Cc1cccc(Nc2ncnc3cc(OCCOC)c(OCCOC)cc23)c1 [Tarceva, Erlotinib] | – | – | – | – | 0.4 µM | −47.11% | 0 µM | −52.89% | 3 µM | −49.68% | >100 µM | −39.83% | 0.04 µM | −15.63% | 0.001 µM | −4.596% | −38.72% | −53.13% | −60.75% | −67.3% | Cell viability (%) (H1975 cells; [3]): −77.63%; Cell viability (%) (H1975 cells; [4]): −56.6%; Cell viability (%) (H1299 cells; [3]): −60.68%; Cell viability (%) (H1299 cells; [4]): −61.14%; Cell viability (%) (HBEC wt cells; [3]): −55.15%; Cell viability (%) (HBEC wt cells; [4]): −37.28%; Cell viability (%) (HBEC RasV12 cells; [3]): −25.67%; Cell viability (%) (HBEC RasV12 cells; [4]): 0.2682%

Source: patent US20160264636A1, “PEPTIDE INHIBITORS OF TEAD/YAP-TAZ INTERACTION” (UNIVERSITE PIERRE ET MARIE CURIE (PARIS 6), priority 2013, published 2016)
